“And” between values parts separate entries of the source, which are not always exact repeats. Identical values can stand only once. Marks after values point to notes of the source that are not given here.
How the values were obtained:
Type in all cases: cell-based, human
HCT-116 cells [1] = assay: Cell cycle distribution, propidium iodide staining; details: CFT 100 µg/mL, CFP 50 µg/mL, 5-FU 8 µM, alone or combined, mean ± SE
Description: Propidium iodide (PI) staining was used to evaluate the effect of the different treatments on the cell cycle. […] Fixed cells, which were washed with PBS and incubated at 37 °C for 1 h with 50 µl RNase (1 mg/ml) (Sigma Aldrich, Germany), were stained for 15 minutes with PI (Molecular Probes, Eugene, Oregon, USA).

DLD-1 cells = assay: Cell cycle distribution, propidium iodide staining; details: for accumulation of dead cells in the pre-G1 phase vs. control: CFT alone
Description: Propidium iodide (PI) staining was used to evaluate the effect of the different treatments on the cell cycle. […] 48 h and 72 h post-treatment, collected cells were fixed with ice-cold ethanol (70%) and stored at - 20 °C for at least 2 h. Fixed cells, which were washed with PBS and incubated at 37 °C for 1 h with 50 µl RNase (1 mg/ml) (Sigma Aldrich, Germany), were stained for 15 minutes with PI (Molecular Probes, Eugene, Oregon, USA). Cell cycle was monitored using BD FACSDiva™ and the percentage of cells in the different phases of the cell cycle (pre-Gi, G0/G1, S, and G2/M) phases was determined using BD FACSDiva™ Software.
Propidium iodide (PI) staining was used to evaluate the effect of the different treatments (Ceftazidime (100 µg/ml) or 5-Fluorouracil (16 µM)) on the cell cycle profile of DLD-1 cells. Briefly, DLD-1 cells were plated at 5^∗104/ml and treated for 48 h and 72 h. Collected cells were fixed with ice-cold ethanol (70%) and stored at -20°C for at least 2 h. Fixed cells, which were washed with PBS and incubated at 37°C for 1 h with 50 µl RNase (1 mg/ml) (Sigma Aldrich, Germany), were stained for 15 minutes with PI (Molecular Probes, Eugene, Oregon, USA). Cell cycle was monitored using BD FACSDiva™ and the percentage of cells in the different phases of the cell cycle (pre-Gi, G0/G1, S, and G2/M) phases was determined using BD FACSDiva™ Software.

HCT-116 cells [2] = assay: Caspase-3/7 activity assay; details: combined with 5-FU 8 µM, 48 and 72h, CFT 100 µg/ml, CFP 50 µg/ml
Description: Caspase-3/7 activity was measured 48 h and 72 h post-treatment according to the manufacturer's protocol (Caspase-Glo-3/7 Assay, Promega Corp, Madison, WI, USA). Briefly, equal volume from treated cells and caspase-3/7 mixture were incubated at room temperature for 3 h and the luminescence was measured by a microplate reader.

[3] = 48 h, CFT 100 µg/mL, CFP 50 µg/mL, 5-FU 16 µM, alone or combined, mean ± SE
[4] = 72 h, CFT 100 µg/mL, CFP 50 µg/mL, 5-FU 16 µM, alone or combined, mean ± SE

In the case of `CC(C)(O/N=C(\C(=O)N[C@@H]1C(=O)N2C(C(=O)[O-])=C(C[n+]3ccccc3)CS[C@H]12)c1csc(N)n1)C(=O)O` [CFT, (6R,7R)-7-[[(2Z)-2-(2-amino-1,3-thiazol-4-yl)-2-(2-carboxypropan-2-yloxyimino)acetyl]amino]-8-oxo-3-(pyridin-1-ium-1-ylmethyl)-5-thia-1-azabicyclo[4.2.0]oct-2-ene-2-carboxylate], the “percentage of cells in G2/M” value (HCT-116 cells [1]; 48 h) is reported as 24.4 ± 1.2%, the “percentage of cells in Pre G1” value (HCT-116 cells [1]; 48 h) is reported as 6.4 ± 2.3^(a) % and the “percentage of cells in S” value (HCT-116 cells [1]; 48 h) is reported as 12.8 ± 2.9%. For the same compound, the “percentage of cells in G0/G1” value (HCT-116 cells [1]; 72 h) was 56.9 ± 1.3^(a) %, the “percentage of cells in G2/M” value (HCT-116 cells [1]; 72 h) was 24.3 ± 0.5^(a) % and the “percentage of cells in Pre G1” value (HCT-116 cells [1]; 72 h) was 9.8% and 9.8 ± 0.9^(a) %. The “percentage of cells in S” value (HCT-116 cells [1]; 72 h) was 6.6 ± 1.0%, the “percentage of cells in G0/G1” value (DLD-1 cells; [3]) was 52.6 ± 3.3% and the “percentage of cells in Pre G1” value (DLD-1 cells; [3]) was 9.3 ± 2.5^(a) %. For the same compound, the “percentage of cells in S” value (DLD-1 cells; [3]) was 14.6 ± 3.2%, the “accumulation of dead cells in the pre-G1 phase vs. control” value (DLD-1 cells; 48 h) was 1.9 fold and the “percentage of cells in G0/G1” value (DLD-1 cells; [4]) was 38.2 ± 4.3^(a) %. For the same compound, the “percentage of cells in G2/M” value (DLD-1 cells; [4]) was 12.0 ± 1.6^(a) %, the “percentage of cells in Pre G1” value (DLD-1 cells; [4]) was 40.6 ± 5.2^(a) % and the “percentage of cells in S” value (DLD-1 cells; [4]) was 8.4 ± 0.6%. The “accumulation of dead cells in the pre-G1 phase vs. control” value (DLD-1 cells; 72h) was 9.4 fold and the “effect on 5-FU-induced apoptosis (caspase 3/7, in words)” value (HCT-116 cells [2]) was “antagonized 5-FU-induced apoptosis”.

— patent publication EP4108244A1, “SS-LACTAM ANTIBIOTIC WITH SIGNIFICANT ACTIVITY AGAINST CANCER E.G. COLON MALIGNANCIES” (priority 2021, dated 2022)
